Measurements taken from article PMC6271966, “Synthesis and Biological Activity of Some Bile Acid-Based Camptothecin Analogues” (Molecules, 2014).
Where two headings read alike, the source gives them in different places.

Tests used:
[1] = system: human breast cancer cell line (MCF-7); assay: MTT cytotoxicity assay, MCF-7; type: cell-based
Protocol: (§1) The cytotoxicity of these compounds against three cancer cell lines was assayed using a conventional microtitre plate tetrazolium cytotoxicity assay. The human hepatoma cancer cell line (SMMC-7721), the colon cancer cell line (HCT-116), and the human breast cancer cell line (MCF-7) were provided by The Chinese Academy of Sciences cell bank. These cells were plated at a density of 1 × 10^5 cells/mL and incubated in a 96-well late for 24 h (37 °C, 5% CO2). The cells were then exposed to various concentrations of the compounds (0.0032, 0.016, 0.08, 0.4, 2, 10, and 50 µM/mL) continuously for 72 h. After this incubation, MTT solution (20 μL, 5 mg/mL) was added to each well and incubated for a further 4 h before removing the media. Formazan crystals were then dissolved by the addition of DMSO (100 μL per well). After mixing, the absorbance was read at 540 nm on a microplate reader. These assays were performed in three independent experiments. Wells containing no drugs, or CPT, were used as negative and positive controls, respectively. The IC50 values, defined as the concentration of compounds that produced a 50% decrease in surviving cells, were calculated using the Logit-method.

[2] = system: human colon cancer cell line (HCT-116); assay: MTT cytotoxicity assay, HCT-116; type: cell-based
Protocol: as §1

[3] = system: human hepatoma cell line (SMMC-7721); assay: MTT cytotoxicity assay, SMMC-7721; type: cell-based
Protocol: as §1

[4] = Lactone stability in rat blood serum (HPLC); type: in vitro ADME
Protocol: Compounds E2, F2, G2, and H2 were dissolved in DMSO (100 μL, 4 mM/L) and incubated in rat blood serum (4 mL) at 37 °C. Aliquots were taken at different time points (0, 2, 4, 6, 8, 10, 12, and 24 h) and examined by HPLC, using CPT as the reference.

[5] = system: H22 mouse liver tumours; assay: In vivo anti-tumour activity, H22 mouse liver tumour model; conditions: H22 KM mice, i.p. every two days
Protocol: Anti-tumour activity screens of CPT-bile acid analogues were conducted in KM mice with H22 mouse liver tumours. Briefly, female mice weighing 18–22 g were subcutaneously inoculated at the right flank with a tumour cell suspension (1 × 10^6 cells) in 0.2 mL of phosphate-buffered saline. The mice were divided into subgroups 24 h after inoculation. These groups (n = 4) were treated with either vehicle (control), CPT, or the CPT-bile acid analogues. Mice received i.p. treatments once every two days. When the tumour weight of the control group reached 1.0–1.5 g, the mice were killed and the TIR (%) calculated.

[6] = Body weight and surviving mice in the H22 in vivo study; parameters: species or system mouse; conditions: for Mice Number End of Study: 4 mice at start
Protocol: Anti-tumour activity screens of CPT-bile acid analogues were conducted in KM mice with H22 mouse liver tumours. […] These groups (n = 4) were treated with either vehicle (control), CPT, or the CPT-bile acid analogues. Mice received i.p. treatments once every two days.

[7] = system: SMMC-7721 cells; assay: Fluorescence microscopy of compound entry into SMMC-7721 cells; type: cell-based, human; conditions: 10 or 20 µM, up to 4 h at 37 °C, ultraviolet light
Protocol: (§2) Compound E2 (final concentrations of 10 µM/mL and […]) and CPT (final concentrations of 10 µM/mL and 20 µM/mL) were directly added to the cell culture medium and incubated for 1 h, 2 h or 4 h at 37 °C. The cells were then gently washed three times with physiological saline. Cellular fluorescence was imaged using a fluorescence microscope (Zeiss inverted Microscope Axiovert 200 equipped with a NIKON DS-FiL (Sendai, Japan). The images were taken using ultraviolet light.

[8] = system: MCF-7 cells; assay: Fluorescence microscopy of compound entry into MCF-7 cells; type: cell-based, human; conditions: data not shown
Protocol: as §2

[9] = in this project
Protocol: Preliminary anti-tumour activity studies of E2, G4, and H2 were evaluated in vivo in a mouse liver adenocarcinoma model (H22) and compared with CPT.

CC[C@@]1(O)C(=O)OCc2c1cc1n(c2=O)Cc2cc3ccccc3nc2-1 [CPT, Camptothecin]
IC50 ([1]; MCF7, MTT, 72 h exposure, MCF-7, read-out: In Vitro Cytotoxicity (IC50, µM) MCF-7): 0.57 µM
IC50 ([2]; MTT, 72 h exposure, HCT-116, read-out: In Vitro Cytotoxicity (IC50, µM) HCT-116): 0.52 µM
IC50 ([3]; MTT, 72 h exposure, SMMC-7721, read-out: In Vitro Cytotoxicity (IC50, µM) SMMC7721): 0.56 µM
half-life at 97.6 µM ([4]; rat blood serum, 37 °C, HPLC, up to 24 h, read-out: Half-Life (converted)): 2.3 h
TIR (%) ([5]; dose 27.45 × 3 µmol/kg): 67.26%
Mice Number End of Study ([6]; dose 27.45 × 3 µmol/kg i.p.): 3
Body Weight (g) End of Study ([6]; dose 27.45 × 3 µmol/kg i.p., start of study 21.4 g): 18.6 g
Cellular fluorescence (accumulation in cells) [7]: no distinct fluorescence
Cellular fluorescence (accumulation in cells) [8]: no fluorescent signal
maximum dose which the mouse can tolerate [9]: 27.45 µmol/kg

CC[C@@]1(OC(=O)CNC(=O)CCC(C)C2CCC3C4CCC5C[C@H](O)CC[C@]5(C)C4C[C@H](O)[C@]23C)C(=O)OCc2c1cc1n(c2=O)Cc2cc3ccccc3nc2-1 (stereo partly drawn) [Compound E2, Camptothecin-20 (S)-O-glycine Ester-[N-(3′α,12′α-dihydroxy-24′-carbonyl-5′β-cholane)]]
IC50 ([1]; MCF7, 72 h, read-out: In Vitro Cytotoxicity (IC50, µM) MCF-7): 150 µM
IC50 ([2]; HCT-116, 72 h, read-out: In Vitro Cytotoxicity (IC50, µM) HCT-116): 15.8 µM
IC50 ([3]; SMMC-7721, 72 h, read-out: In Vitro Cytotoxicity (IC50, µM) SMMC7721): 0.36 µM
half-life at 97.6 µM ([4]; rat, serum): > 24 h
TIR (%) ([5]; dose 19.23 × 3 µmol/kg): 4.09%
TIR (%) ([5]; dose 38.45 × 3 µmol/kg): 16.10%
TIR (%) ([5]; dose 57.69 × 3 µmol/kg): 40.13%
Mice Number End of Study ([6]; dose 19.23 × 3 µmol/kg i.p.): 4
Body Weight (g) End of Study ([6]; dose 19.23 × 3 µmol/kg i.p., start of study 19.9 g): 21.9 g
Mice Number End of Study ([6]; dose 38.45 × 3 µmol/kg i.p.): 4
Body Weight (g) End of Study ([6]; dose 38.45 × 3 µmol/kg i.p., start of study 20.5 g): 21.5 g
Mice Number End of Study ([6]; dose 57.69 × 3 µmol/kg i.p.): 4
Body Weight (g) End of Study ([6]; dose 57.69 × 3 µmol/kg i.p., start of study 20.5 g): 20.6 g
Cellular fluorescence (accumulation in cells) [7]: accumulated in the SMMC-7721 cells
Cellular fluorescence (accumulation in cells) [8]: no fluorescent signal
melting point: 203 to 204 °C
